In ChEMBL document CHEMBL4831528, “Discovery of Novel Pterostilbene-Based Derivatives as Potent and Orally Active NLRP3 Inflammasome Inhibitors with Inflammatory Activity for Colitis” (J Med Chem, 2021):
Calls of active or inactive are those of the source. The calls are words filed in the database; no cut-off is given here.

Tests used:
[1] = target: NACHT, LRR and PYD domains-containing protein 3 (Mus musculus) (UniProt Q8R4B8); assay: Inhibition of NLRP3 inflammasome activation in LPS-stimulated mouse bone marrow-derived macrophages assessed as reduction in caspase1 p20 in supernatant at 2 uM preincubated for 30 mins followed by MSU addition and measured after 0.5 hrs by Western blot analysis; assay type: tissue-based; settings: Macrophage, time 60.0 min
Chain of NACHT, LRR and PYD domains-containing protein 3 (Mus musculus) (Q8R4B8 whole entry, the tested form may be a part): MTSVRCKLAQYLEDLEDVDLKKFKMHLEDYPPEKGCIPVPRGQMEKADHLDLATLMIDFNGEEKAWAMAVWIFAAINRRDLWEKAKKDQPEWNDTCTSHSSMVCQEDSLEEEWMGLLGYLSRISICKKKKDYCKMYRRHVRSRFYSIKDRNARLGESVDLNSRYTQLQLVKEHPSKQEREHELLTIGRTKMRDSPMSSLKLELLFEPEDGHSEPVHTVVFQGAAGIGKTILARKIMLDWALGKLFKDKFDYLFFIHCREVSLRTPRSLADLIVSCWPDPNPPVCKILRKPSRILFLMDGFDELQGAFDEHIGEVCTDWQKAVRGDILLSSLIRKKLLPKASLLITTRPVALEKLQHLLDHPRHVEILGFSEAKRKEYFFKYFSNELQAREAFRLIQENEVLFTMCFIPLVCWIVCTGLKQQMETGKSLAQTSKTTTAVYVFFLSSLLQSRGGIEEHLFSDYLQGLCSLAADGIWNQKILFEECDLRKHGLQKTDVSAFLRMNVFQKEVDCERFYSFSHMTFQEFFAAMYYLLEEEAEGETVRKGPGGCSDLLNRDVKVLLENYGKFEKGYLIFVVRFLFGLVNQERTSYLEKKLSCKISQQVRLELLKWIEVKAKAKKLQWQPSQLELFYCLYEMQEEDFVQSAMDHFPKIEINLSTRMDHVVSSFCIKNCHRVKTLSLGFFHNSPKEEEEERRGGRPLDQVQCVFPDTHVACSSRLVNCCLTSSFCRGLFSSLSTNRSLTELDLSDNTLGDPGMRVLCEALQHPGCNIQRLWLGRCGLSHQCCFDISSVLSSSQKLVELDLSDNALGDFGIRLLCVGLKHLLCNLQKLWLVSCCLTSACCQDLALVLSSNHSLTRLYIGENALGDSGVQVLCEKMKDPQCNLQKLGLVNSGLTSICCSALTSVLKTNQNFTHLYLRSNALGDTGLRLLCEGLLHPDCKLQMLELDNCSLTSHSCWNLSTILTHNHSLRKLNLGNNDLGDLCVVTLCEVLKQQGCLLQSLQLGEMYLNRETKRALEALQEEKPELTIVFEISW

[2] = Toxicity in C57BL/6 mouse assessed as effect on heart at 20 to 40 mg/kg, ig administered for 28 days; assay type: organism-based; settings: in vivo, po, 672 h, dose 20-40 mg/kg, time 28 day
[3] = target: NACHT, LRR and PYD domains-containing protein 3 (Mus musculus) (UniProt Q8R4B8); assay: Inhibition of NLRP3 inflammasome activation in LPS-stimulated mouse bone marrow-derived macrophages assessed as reduction in pro caspase1 secretion in cell lysate at 2 uM preincubated for 30 mins followed by nigericin addition and measured after 0.5 hrs by Western blot analysis; assay type: subcellular; settings: Macrophage, time 60.0 min
[4] = target: NACHT, LRR and PYD domains-containing protein 3 (Mus musculus) (UniProt Q8R4B8); assay: Inhibition of NLRP3 inflammasome activation in LPS-stimulated mouse bone marrow-derived macrophages assessed as reduction in NEK7-NLRP3 protein-protein interaction preincubated for 30 mins followed by nigericin addition and measured after 30 mins by immunoprecipitation method; assay type: tissue-based; settings: Macrophage, time 60.0 min
[5] = target: NACHT, LRR and PYD domains-containing protein 3 (Mus musculus) (UniProt Q8R4B8); assay: Inhibition of NLRP3 inflammasome activation in LPS-stimulated mouse bone marrow-derived macrophages assessed as reduction in IL-1beta secretion at 1 to 4 uM preincubated for 30 mins followed by nigericin addition and measured after 0.5 hrs by Western blot analysis; assay type: tissue-based; settings: Macrophage, dose 1-4 µM
[6] = target: NACHT, LRR and PYD domains-containing protein 3 (Mus musculus) (UniProt Q8R4B8); assay: Inhibition of NLRP3 inflammasome activation in LPS-stimulated mouse bone marrow-derived macrophages assessed as reduction in cleaved IL-1beta secretion in supernatant at 2 uM preincubated for 30 mins followed by nigericin addition and measured after 0.5 hrs by Western blot analysis; assay type: tissue-based; settings: Macrophage, time 60.0 min
[7] = target: NACHT, LRR and PYD domains-containing protein 3 (Mus musculus) (UniProt Q8R4B8); assay: Binding affinity to NLRP3 in mouse J774A1 cells assessed as thermal stabilization at 50 uM incubated for 30 mins by cellular thermal shift assay; assay type: cell-based; settings: J774.A1
[8] = Toxicity in C57BL/6 mouse assessed as induction of anorexia at 20 to 40 mg/kg, ig administered for 28 days; assay type: organism-based; settings: in vivo, po, 672 h, dose 20-40 mg/kg, time 28 day
[9] = Cmax in mouse at 2 mg/kg, iv measured after 0.08 to 24 hrs by LC-MS/MS analysis; assay type: ADME, organism-based; parameters: route intravenous, time 0.08-24 hrs, dose 2 mg/kg; settings: in vivo
Mus musculus [10] = assay: Protection against DSS-induced acute ulcerative colitis in C57BL/6 mouse assessed as reduction in pathological index score at 10 to 20 mg/kg, ig administered for 7 days by Hematoxylin and eosin staining based optical microscopy; assay type: functional, organism-based; settings: dose 10-20 mg/kg, time 7.0 day
[11] = target: NACHT, LRR and PYD domains-containing protein 3 (Mus musculus) (UniProt Q8R4B8); assay: Inhibition of NLRP3 inflammasome activation in LPS-stimulated mouse bone marrow-derived macrophages assessed as reduction in pro caspase1 p20 in cell lysate at 2 uM preincubated for 30 mins followed by ATP addition and measured after 0.5 hrs by Western blot analysis; assay type: subcellular; settings: Macrophage, time 60.0 min
[12] = target: NACHT, LRR and PYD domains-containing protein 3 (Mus musculus) (UniProt Q8R4B8); assay: Inhibition of NLRP3 inflammasome activation in LPS-stimulated mouse bone marrow-derived macrophages assessed as reduction in activated caspase1 p20 in supernatant at 2 uM preincubated for 30 mins followed by ATP addition and measured after 0.5 hrs by Western blot analysis; assay type: tissue-based; settings: Macrophage, time 60.0 min
Macrophage = assay: Inhibition of NFkappaB activation in LPS-stimulated mouse bone marrow-derived macrophages assessed as reduction in TNFalpha secretion at 0.5 to 2 uM preincubated for 30 mins followed by nigericin addition and measured after 30 mins by ELISA; assay type: tissue-based; settings: dose 0.5-2 µM, time 60.0 min
Mus musculus [13] = assay: Downregulation of TNFalpha expression in C57BL/6 mouse model of DSS-induced ulcerative colitis at 10 to 20 mg/kg, ig administered for 7 days by ELISA; assay type: functional, organism-based; settings: dose 10-20 mg/kg, time 7.0 day
Mus musculus [14] = assay: Protection against DSS-induced acute ulcerative colitis in C57BL/6 mouse assessed as reduction in adhesion of colon at 10 to 20 mg/kg, ig administered for 7 days; assay type: functional, organism-based; settings: dose 10-20 mg/kg, time 7.0 day
[15] = Clearance in mouse at 2 mg/kg, iv measured after 0.08 to 24 hrs by LC-MS/MS analysis; assay type: ADME, organism-based; settings: in vivo, time 0.08-24 hrs
[16] = target: NACHT, LRR and PYD domains-containing protein 3 (Mus musculus) (UniProt Q8R4B8); assay: Inhibition of NLRP3 inflammasome activation in LPS-stimulated mouse bone marrow-derived macrophages assessed as reduction in cleaved IL-1beta secretion in supernatant at 2 uM preincubated for 30 mins followed by ATP addition and measured after 0.5 hrs by Western blot analysis; assay type: tissue-based; settings: Macrophage, time 60.0 min
Mus musculus [17] = assay: Downregulation of phosphorylated STAT3 expression in colon of C57BL/6 mouse model of DSS-induced ulcerative colitis at 10 to 20 mg/kg, ig administered for 7 days by Western blot analysis; assay type: functional, organism-based; settings: dose 10-20 mg/kg, time 7.0 day
[18] = target: NACHT, LRR and PYD domains-containing protein 3 (Mus musculus) (UniProt Q8R4B8); assay: Inhibition of NLRP3 inflammasome activation in LPS-stimulated mouse bone marrow-derived macrophages assessed as reduction in cleaved IL-1beta in supernatant at 2 uM preincubated for 30 mins followed by MSU addition and measured after 0.5 hrs by Western blot analysis; assay type: tissue-based; settings: Macrophage, time 60.0 min
[19] = target: NACHT, LRR and PYD domains-containing protein 3 (Mus musculus) (UniProt Q8R4B8); assay: Inhibition of NLRP3 inflammasome activation in LPS-stimulated mouse J774A.1 cells assessed as inhibition of cell pyrolysis at 10 uM incubated for 1 hr followed by ATP addition and measured after 30 mins by Hoechst 33342/propidium iodide staining based high content screening method relative to control; settings: J774.A1, time 1.5 hrs
[20] = target: NACHT, LRR and PYD domains-containing protein 3 (Mus musculus) (UniProt Q8R4B8); assay: Inhibition of NLRP3 inflammasome activation in LPS-stimulated mouse bone marrow-derived macrophages assessed as attenuation of ASC polymer at 1 to 4 uM preincubated for 30 mins followed by nigericin addition and measured after 0.5 hrs by Western blot analysis; assay type: tissue-based; settings: Macrophage, dose 1-4 µM, time 60.0 min
[21] = Intrinsic clearance in mouse liver microsomes preincubated for 5 mins followed by NADPH addition and measured after 5 to 60 mins by LC-MS/MS analysis; assay type: ADME, Microsome; settings: time 5-60 min, read-out: CLH
[22] = Half life in human liver microsomes preincubated for 5 mins followed by NADPH addition and measured after 5 to 60 mins by LC-MS/MS analysis; assay type: ADME, Microsome
[23] = target: NACHT, LRR and PYD domains-containing protein 3 (Mus musculus) (UniProt Q8R4B8); assay: Inhibition of NLRP3 inflammasome activation in LPS-stimulated mouse bone marrow-derived macrophages assessed as reduction in pro IL-1beta secretion in cell lysate at 2 uM preincubated for 30 mins followed by ATP addition and measured after 0.5 hrs by Western blot analysis; assay type: subcellular; settings: Macrophage, time 60.0 min
[24] = Hepatic clearance in mouse liver microsomes preincubated for 5 mins followed by NADPH addition and measured after 5 to 60 mins by LC-MS/MS analysis; assay type: ADME, Microsome; settings: time 5-60 min
Mus musculus [25] = assay: Downregulation of IL6 expression in colon of C57BL/6 mouse model of DSS-induced ulcerative colitis at 10 to 20 mg/kg, ig administered for 7 days by ELISA; assay type: functional, organism-based; settings: dose 10-20 mg/kg, time 7.0 day
[26] = target: NACHT, LRR and PYD domains-containing protein 3 (Mus musculus) (UniProt Q8R4B8); assay: Inhibition of NLRP3 inflammasome activation in LPS-stimulated mouse bone marrow-derived macrophages assessed as reduction in pro IL-1beta secretion in cell lysate at 2 uM preincubated for 30 mins followed by nigericin addition and measured after 0.5 hrs by Western blot analysis; assay type: subcellular; settings: Macrophage, time 60.0 min
[27] = Clearance in mouse at 20 mg/kg, po measured up to 24 hrs by LC-MS/MS analysis; assay type: ADME, organism-based; settings: in vivo
Mus musculus [28] = assay: Protection against DSS-induced acute ulcerative colitis in C57BL/6 mouse assessed as reduction in body weight at 10 to 20 mg/kg, ig administered for 7 days; assay type: functional, organism-based; settings: dose 10-20 mg/kg, time 7.0 day
Mus musculus [29] = assay: Anti-inflammatory activity in C57BL/6 mouse DSS-induced acute ulcerative colitis assessed as reduction in disease index at 10 to 20 mg/kg, ig administered for 7 days; assay type: functional, organism-based; settings: dose 10-20 mg/kg, time 7.0 day

inhibition [1]: Active | inhibition [3]: Active | inhibition [4]: Dose-Dependent Effect | inhibition [5]: Active | inhibition [6]: Active | Activity [7]: Active | Cmax [9]: 355 ng/mL | inhibition [11]: Active | inhibition [12]: Active | clearance [15]: 87.5 mL/min/kg | inhibition [16]: Active | inhibition [18]: Active | inhibition [19]: 73.1% | inhibition [20]: Active | microsomal CLint [21]: 32 µL/min/mg | half-life [22]: 1.13 h | inhibition [23]: Active | CLhep predicted [24]: 52.5 mL/min/kg | inhibition [26]: Active | CL [27]: 152 mL/min/kg
Structure (SMILES): COc1cc(/C=C/c2ccc(NC(=O)C3CC3)cc2)c(/C=C/[N+](=O)[O-])c(OC)c1
Activity [2]: Non-Toxic | Activity [8]: Non-Toxic | Activity (Mus musculus [10]): Active | inhibition (Macrophage): inactive | Activity (Mus musculus [13]): Active | Activity (Mus musculus [14]): Active | Activity (Mus musculus [17]): Active | Activity (Mus musculus [25]): Active | Activity (Mus musculus [28]): Active | Activity (Mus musculus [29]): Active
